In patent US7902187B2, “6-substituted 2-(benzimidazolyl)purine and purinone derivatives for immunosuppression” (Wyeth LLC, priority 2006, dated 2011):

Biological target: T1, Jak3 (Homo sapiens, UniProt P52333)
T1 construct: A fragment encoding the catalytic domain of Jak3 (508aa to 1124aa) was ligated with GST at 5′ end; made in house; host or cells: Sf9 insect cells (baculovirus, pFastBac 1)
T1 sequence (P52333 508-1124): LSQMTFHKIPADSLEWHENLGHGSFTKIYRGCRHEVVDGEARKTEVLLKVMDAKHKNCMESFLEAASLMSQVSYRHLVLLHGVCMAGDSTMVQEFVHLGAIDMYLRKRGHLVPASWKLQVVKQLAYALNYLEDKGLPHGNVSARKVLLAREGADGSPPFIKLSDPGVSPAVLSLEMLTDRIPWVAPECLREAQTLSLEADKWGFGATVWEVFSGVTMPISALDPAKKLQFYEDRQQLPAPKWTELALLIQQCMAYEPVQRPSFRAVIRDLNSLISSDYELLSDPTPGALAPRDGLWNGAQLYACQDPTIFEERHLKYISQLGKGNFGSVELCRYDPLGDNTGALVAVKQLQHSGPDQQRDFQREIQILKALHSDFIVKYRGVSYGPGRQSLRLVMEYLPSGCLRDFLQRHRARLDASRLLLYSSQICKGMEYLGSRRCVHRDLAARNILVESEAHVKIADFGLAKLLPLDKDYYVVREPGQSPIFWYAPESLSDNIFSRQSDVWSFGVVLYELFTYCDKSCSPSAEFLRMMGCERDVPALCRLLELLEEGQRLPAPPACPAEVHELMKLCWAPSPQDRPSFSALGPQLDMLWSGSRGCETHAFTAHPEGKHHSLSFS
Assay: Jak3 Kinase Assay (HTRF)
Type: biochemical
Details: GST-Jak3 catalytic domain, 1 μM ATP, 60-min incubation; read-out: Jak3 Kinase, IC50 representation
Experimental: Human Jak3 cDNA was amplified by PCR. A fragment encoding the catalytic domain of Jak3 (508aa to 1124aa) was ligated with GST at 5′ end. This fused GST-Jak3 DNA fragment was cloned into the EcoRI site of the donor plasmid pFastBac 1 (Life Technologies #10359-016). The transformation, transposition, and transfection of insect cells (Sf9) were performed according to the manufacture's instructions. The cell lysate containing recombinant GST-Jak3 was used in the kinase assay. Anti-GST antibody (10 μg/ml, Sigma #G1417) was coated onto a 384-well plate at 4° C. overnight. Cell lysate containing GST-Jak3 (1:100 dilution) was added to the anti-GST coated plates, and GST-Jak3 was captured by immobilized anti-GST antibody. Testing compounds and substrate mix (50 mM HEPES, pH 7, 0.5 mM Na3VO4, 25 mM MgCl2, 1 mM DTT, 0.005% BSA, 1 μM ATP, and 4.5 μg/ml biotinyl poly-Glu,Ala,Tyr) were added to the plate to initiate the reaction. After a 60-min incubation, the reaction was stopped by 4 mM EDTA, and phosphorylation of biotinyl poly-Glu,Ala,Tyr was detected using 17 μg/ml Cy5-streptavidin (Amersham, #PA92005) and 2.7 μg/ml Europium-conjugated anti-phosphotyrosine antibody (PerkinElmer #AD0069) using homogeneous time-resolved fluorescence (HTRF) technology.

`N#Cc1ccc2ncn(-c3nc(N4CC(O)C4)c4[nH]c(=O)n(C5CCOCC5)c4n3)c2c1` was tested, and the IC50 was < 0.1 µM.

`Cn1c(=O)n([C@H]2CC[C@H](O)CC2)c2nc(-n3cnc4ccc(C#N)cc43)nc(N3CC(F)(F)C3)c21` was tested, and the IC50 was < 0.1 µM.

For `NC(=O)C1CCN(c2nc(-n3cnc4ccc(Cl)cc43)nc3c2[nH]c(=O)n3C2CCOCC2)CC1`, the IC50 was < 0.1 µM.

In the case of `N#Cc1ccc2ncn(-c3nc(N4CC(C(=O)O)C4)c4[nH]c(=O)n(C5CCOCC5)c4n3)c2c1`, the IC50 is reported as < 0.1 µM.

With `N#Cc1ccc2ncn(-c3nc(N4CC(F)(F)C4)c4[nH]c(=O)n(C5CCOCC5)c4n3)c2c1` the IC50 was < 0.1 µM.

For `O=c1[nH]c2c(N3CC(O)C3)nc(-n3cnc4ccc(F)cc43)nc2n1[C@@H]1CCOc2c(F)cccc21`, the IC50 was < 0.1 µM.

In the case of `Cn1c(=O)n([C@H]2CC[C@H](O)CC2)c2nc(-n3cnc4ccc(Cl)cc43)nc(N3CC[C@H](F)C3)c21`, the IC50 is reported as < 0.1 µM.

In the case of `N#Cc1ccc2ncn(-c3nc(N4CCOCC4)c4[nH]c(=O)n(C5CCOCC5)c4n3)c2c1`, the IC50 is reported as < 0.1 µM.

For `O=c1[nH]c2c(N3CC(O)C3)nc(-n3cnc4ccc(Cl)cc43)nc2n1C1CCOCC1`, the IC50 was < 0.1 µM.

With `O=c1[nH]c2c(N3CC(F)(F)C3)nc(-n3cnc4ccc(F)cc43)nc2n1[C@H]1CC[C@H](O)CC1` the IC50 was < 0.1 µM.

In the case of `N#Cc1ccc2ncn(-c3nc(NCCCN)c4[nH]c(=O)n(C5CCOCC5)c4n3)c2c1`, the IC50 is reported as < 0.1 µM.

For `O=c1[nH]c2c(N3CC[C@H](F)C3)nc(-n3cnc4ccc(F)cc43)nc2n1C1CCOCC1`, the IC50 was < 0.1 µM.

With `Cn1c(=O)n([C@H]2CC[C@H](O)CC2)c2nc(-n3cnc4ccc(F)cc43)nc(N3CCC3)c21` the IC50 was < 0.1 µM.

In the case of `Cn1c(=O)n([C@H]2CC[C@H](O)CC2)c2nc(-n3cnc4ccc(Cl)cc43)nc(N3CC[C@@H](F)C3)c21`, the IC50 is reported as < 0.1 µM.

In the case of `N#Cc1ccc2ncn(-c3nc(N4CCCC(O)CC4)c4[nH]c(=O)n(C5CCOCC5)c4n3)c2c1` (stereo not drawn), the IC50 is reported as < 0.1 µM.

For `Cn1c(=O)n([C@H]2CC[C@H](O)CC2)c2nc(-n3cnc4ccc(F)cc43)nc(N3CC[C@@H](F)C3)c21`, the IC50 was < 0.1 µM.

With `NC(=O)C1CCN(c2nc(-n3cnc4ccc(F)cc43)nc3c2[nH]c(=O)n3C2CCOCC2)CC1` the IC50 was < 0.1 µM.

In the case of `CN1CCCN(c2nc(-n3cnc4ccc(Cl)cc43)nc3c2[nH]c(=O)n3C2CCOCC2)CC1`, the IC50 is reported as < 0.1 µM.

`N#Cc1ccc2ncn(-c3nc(N4CCS(=O)(=O)CC4)c4[nH]c(=O)n(C5CCOCC5)c4n3)c2c1` was tested, and the IC50 was < 0.1 µM.

`Cn1c(=O)n([C@H]2CC[C@H](O)CC2)c2nc(-n3cnc4ccc(F)cc43)nc(N3CCCC3)c21` was tested, and the IC50 was < 0.1 µM.

With `Cn1c(=O)n([C@H]2CC[C@H](O)CC2)c2nc(-n3cnc4ccc(Cl)cc43)nc(N3CC(F)(F)C3)c21` the IC50 was < 0.1 µM.

With `CC(C)(C)OC(=O)N1CC(Nc2nc(-n3cnc4ccc(Cl)cc43)nc3c2[nH]c(=O)n3C2CCOCC2)C1` the IC50 was < 0.1 µM.

With `O=c1[nH]c2c(NCCCO)nc(-n3cnc4ccc(Cl)cc43)nc2n1C1CCOCC1` the IC50 was < 0.1 µM.

`O=c1[nH]c2c(N3CC(O)C3)nc(-n3cnc4ccc(F)cc43)nc2n1C1CCOCC1` was tested, and the IC50 was < 0.1 µM.

In the case of `CN1CCC(Nc2nc(-n3cnc4ccc(C#N)cc43)nc3c2[nH]c(=O)n3C2CCOCC2)CC1`, the IC50 is reported as < 0.1 µM.

In the case of `Cn1c(=O)n([C@H]2CC[C@H](O)CC2)c2nc(-n3cnc4ccc(Cl)cc43)nc(N3CCC(F)CC3)c21`, the IC50 is reported as < 0.1 µM.

`O=c1[nH]c2c(N3CCC(O)C3)nc(-n3cnc4ccc(F)cc43)nc2n1C1CCOCC1` (stereo not drawn) was tested, and the IC50 was < 0.1 µM.

With `O=c1[nH]c2c(N3CCCC3)nc(-n3cnc4ccc(F)cc43)nc2n1C1CCOCC1` the IC50 was < 0.1 µM.

For `COCCNc1nc(-n2cnc3ccc(Cl)cc32)nc2c1[nH]c(=O)n2C1CCOCC1`, the IC50 was < 0.1 µM.

In the case of `Cn1c(=O)n([C@H]2CC[C@H](O)CC2)c2nc(-n3cnc4ccc(F)cc43)nc(N3CC(F)(F)C3)c21`, the IC50 is reported as < 0.1 µM.

In the case of `O=c1[nH]c2c(N3CC[C@@H](F)C3)nc(-n3cnc4ccc(F)cc43)nc2n1C1CCOCC1`, the IC50 is reported as < 0.1 µM.

`O=c1[nH]c2c(N3CC(F)(F)C3)nc(-n3cnc4ccc(Cl)cc43)nc2n1C1CCOCC1` was tested, and the IC50 was < 0.1 µM.

`CC(c1cccnc1)n1c(=O)[nH]c2c(N3CC(F)(F)C3)nc(-n3cnc4ccc(C#N)cc43)nc21` (stereo not drawn) was tested, and the IC50 was < 0.1 µM.

In the case of `N#Cc1ccc2ncn(-c3nc(-c4ccncc4)c4[nH]c(=O)n(C5CCOCC5)c4n3)c2c1`, the IC50 is reported as < 0.1 µM.

In the case of `CC(C)(C)OC(=O)NCCCNc1nc(-n2cnc3ccc(C#N)cc32)nc2c1[nH]c(=O)n2C1CCOCC1`, the IC50 is reported as < 0.1 µM.

For `O=c1[nH]c2c(N3CCC(F)(F)C3)nc(-n3cnc4ccc(F)cc43)nc2n1C1CCOCC1`, the IC50 was < 0.1 µM.

`O=c1[nH]c2c(N3CC(F)(F)C3)nc(-n3cnc4ccc(F)cc43)nc2n1C1CCOCC1` was tested, and the IC50 was < 0.1 µM.

`O=c1[nH]c2c(NC3CNC3)nc(-n3cnc4ccc(F)cc43)nc2n1C1CCOCC1` was tested, and the IC50 was < 0.1 µM.

For `O=c1[nH]c2c(N3CCC3)nc(-n3cnc4ccc(Cl)cc43)nc2n1C1CCOCC1`, the IC50 was < 0.1 µM.

In the case of `O=c1[nH]c2c(NCC3CNC3)nc(-n3cnc4ccc(F)cc43)nc2n1C1CCOCC1`, the IC50 is reported as < 0.1 µM.

With `Cn1cc(-c2nc(-n3cnc4ccc(F)cc43)nc3c2[nH]c(=O)n3C2CCOCC2)cn1` the IC50 was < 0.1 µM.

With `O=c1[nH]c2c(N3CCC3)nc(-n3cnc4ccc(F)cc43)nc2n1C1CCOCC1` the IC50 was < 0.1 µM.

`O=C(O)c1nc(-n2cnc3ccc(F)cc32)nc2c1[nH]c(=O)n2C1CCOCC1` showed an IC50 of 0.1 to 1 µM.

For `O=c1[nH]c2c(OC3CCOC3)nc(-n3cnc4ccc(F)cc43)nc2n1C1CCOCC1` (stereo not drawn), the IC50 was 0.1 to 1 µM.

For `CO[C@H]1CC[C@H](n2c(=O)[nH]c3c(Cl)nc(-n4cnc5ccc(C#N)cc54)nc32)CC1`, the IC50 was 0.1 to 1 µM.

`O=c1[nH]c2c(-c3ccccc3)nc(-n3cnc4ccc(F)cc43)nc2n1[C@@H]1CCOc2c(F)cccc21` gave an IC50 of 0.1 to 1 µM.

In the case of `CC1CCN(c2nc(-n3cnc4ccc(Cl)cc43)nc3c2[nH]c(=O)n3C2CCOCC2)CC1`, the IC50 is reported as 0.1 to 1 µM.

`N#Cc1ccc(-c2nc(-n3cnc4ccc(F)cc43)nc3c2[nH]c(=O)n3[C@@H]2CCOc3c(F)cccc32)cc1` gave an IC50 of 0.1 to 1 µM.

`O=c1[nH]c2c(NCc3ccccc3)nc(-n3cnc4ccc(F)cc43)nc2n1C1CCOCC1` showed an IC50 of 0.1 to 1 µM.

Work on `Cc1cccc(-c2nc(-n3cnc4ccc(F)cc43)nc3c2[nH]c(=O)n3C2CCOCC2)c1` yielded an IC50 of 0.1 to 1 µM.

Molecule `O=c1[nH]c2c(C3CCC3)nc(-n3cnc4ccc(F)cc43)nc2n1C1CCOCC1` has an IC50 of 0.1 to 1 µM.

Molecule `O=c1[nH]c2c(NCC3CC3)nc(-n3cnc4ccc(F)cc43)nc2n1[C@@H]1CCOc2c(F)cccc21` has an IC50 of 0.1 to 1 µM.

`O=c1[nH]c2c(-c3ccccc3)nc(-n3cnc4ccccc43)nc2n1[C@@H]1CCOc2ccc(F)cc21` was tested, and the IC50 was 0.1 to 1 µM.

`O=c1[nH]c2c(Cc3ccccc3)nc(-n3cnc4ccc(F)cc43)nc2n1[C@@H]1CCOc2c(F)cccc21` showed an IC50 of 0.1 to 1 µM.

With `C[C@H](Nc1nc(-n2cnc3ccc(F)cc32)nc2c1[nH]c(=O)n2C1CCOCC1)c1ccccc1` the IC50 was 0.1 to 1 µM.

`O=c1[nH]c2c(-c3ccccc3)nc(-n3cnc4ccccc43)nc2n1C1CCOCC1` gave an IC50 of 0.1 to 1 µM.

In the case of `O=c1[nH]c2c(-c3ccc(Cl)cc3)nc(-n3cnc4ccc(F)cc43)nc2n1C1CCOCC1`, the IC50 is reported as 0.1 to 1 µM.

In the case of `O=c1[nH]c2c(-c3ccc(Cl)cc3)nc(-n3cnc4ccc(F)cc43)nc2n1[C@@H]1CCOc2c(F)cccc21`, the IC50 is reported as 0.1 to 1 µM.

`CC(C)CNc1nc(-n2cnc3ccc(F)cc32)nc2c1[nH]c(=O)n2[C@@H]1CCOc2c(F)cccc21` showed an IC50 of 0.1 to 1 µM.

With `CC(C)Cc1nc(-n2cnc3ccc(F)cc32)nc2c1[nH]c(=O)n2[C@@H]1CCOc2c(F)cccc21` the IC50 was 0.1 to 1 µM.

Work on `O=c1[nH]c2c(-c3cccc(Cl)c3)nc(-n3cnc4ccc(F)cc43)nc2n1C1CCOCC1` yielded an IC50 of 0.1 to 1 µM.

Work on `O=c1[nH]c2c(-c3cccc4cnccc34)nc(-n3cnc4ccc(F)cc43)nc2n1C1CCOCC1` yielded an IC50 of 0.1 to 1 µM.

For `CCCCc1nc(-n2cnc3ccc(F)cc32)nc2c1[nH]c(=O)n2[C@@H]1CCOc2c(F)cccc21`, the IC50 was > 1 µM.

With `CCC(C)c1nc(-n2cnc3ccc(F)cc32)nc2c1[nH]c(=O)n2[C@@H]1CCOc2c(F)cccc21` (stereo partly drawn) the IC50 was > 1 µM.

In the case of `O=c1[nH]c2c(-c3ccccc3Cl)nc(-n3cnc4ccc(F)cc43)nc2n1C1CCOCC1`, the IC50 is reported as > 1 µM.

In the case of `C[C@@H](Nc1nc(-n2cnc3ccc(F)cc32)nc2c1[nH]c(=O)n2C1CCOCC1)c1ccccc1`, the IC50 is reported as > 1 µM.
